According to article PMC12155096 (International Journal of Molecular Sciences, 2025):
Read-outs that look alike come from different tables or passages of the source.

Columns and labels:
[1] = molecular target: Photinus pyralis (firefly) luciferase (Photinus pyralis, UniProt P08659); assay: biochemical; format: biochemical
human CYP1A2 = molecular target: T1, human CYP1A2 (Homo sapiens, UniProt P05177)
T1 sequence (P05177 1-516): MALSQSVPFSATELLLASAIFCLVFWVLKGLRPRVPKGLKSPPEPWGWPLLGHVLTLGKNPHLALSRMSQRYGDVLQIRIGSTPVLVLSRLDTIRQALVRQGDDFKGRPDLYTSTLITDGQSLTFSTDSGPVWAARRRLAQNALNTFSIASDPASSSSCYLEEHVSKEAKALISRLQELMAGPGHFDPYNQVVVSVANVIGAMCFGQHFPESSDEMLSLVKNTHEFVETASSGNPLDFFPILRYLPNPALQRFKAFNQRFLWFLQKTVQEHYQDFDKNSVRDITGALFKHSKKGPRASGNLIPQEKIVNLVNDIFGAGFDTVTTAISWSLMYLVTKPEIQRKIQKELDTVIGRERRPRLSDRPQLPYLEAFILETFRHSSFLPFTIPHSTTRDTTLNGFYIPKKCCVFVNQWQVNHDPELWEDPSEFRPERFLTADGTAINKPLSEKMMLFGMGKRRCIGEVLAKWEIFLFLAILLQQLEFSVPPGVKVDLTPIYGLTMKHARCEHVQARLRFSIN

human CYP2C9 = human CYP2C9 (Homo sapiens, UniProt P11712)
human CYP2C19 = human CYP2C19 (Homo sapiens, UniProt P33261)
human CYP2D6 = human CYP2D6 (Homo sapiens, UniProt P10635)
CYP3A4 = CYP3A4 (Homo sapiens, UniProt P08684)
[2] = read-out: Luciferase IC50 (half-maximal inhibitory concentration)

CYP3A4, sequence (P08684 whole entry): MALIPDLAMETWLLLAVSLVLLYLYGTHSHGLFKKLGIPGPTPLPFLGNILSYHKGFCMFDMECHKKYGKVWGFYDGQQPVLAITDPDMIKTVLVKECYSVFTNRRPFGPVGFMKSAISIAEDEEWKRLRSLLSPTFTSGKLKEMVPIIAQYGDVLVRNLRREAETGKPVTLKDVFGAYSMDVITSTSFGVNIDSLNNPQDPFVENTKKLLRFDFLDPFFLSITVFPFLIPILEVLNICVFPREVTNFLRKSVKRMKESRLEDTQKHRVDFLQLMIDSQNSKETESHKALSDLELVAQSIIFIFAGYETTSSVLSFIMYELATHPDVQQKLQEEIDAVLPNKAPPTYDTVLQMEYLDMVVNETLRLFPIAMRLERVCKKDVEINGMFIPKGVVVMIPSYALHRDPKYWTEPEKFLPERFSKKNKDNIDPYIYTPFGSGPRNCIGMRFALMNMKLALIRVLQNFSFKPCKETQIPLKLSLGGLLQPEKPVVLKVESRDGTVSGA
human CYP2C9, sequence (P11712 whole entry): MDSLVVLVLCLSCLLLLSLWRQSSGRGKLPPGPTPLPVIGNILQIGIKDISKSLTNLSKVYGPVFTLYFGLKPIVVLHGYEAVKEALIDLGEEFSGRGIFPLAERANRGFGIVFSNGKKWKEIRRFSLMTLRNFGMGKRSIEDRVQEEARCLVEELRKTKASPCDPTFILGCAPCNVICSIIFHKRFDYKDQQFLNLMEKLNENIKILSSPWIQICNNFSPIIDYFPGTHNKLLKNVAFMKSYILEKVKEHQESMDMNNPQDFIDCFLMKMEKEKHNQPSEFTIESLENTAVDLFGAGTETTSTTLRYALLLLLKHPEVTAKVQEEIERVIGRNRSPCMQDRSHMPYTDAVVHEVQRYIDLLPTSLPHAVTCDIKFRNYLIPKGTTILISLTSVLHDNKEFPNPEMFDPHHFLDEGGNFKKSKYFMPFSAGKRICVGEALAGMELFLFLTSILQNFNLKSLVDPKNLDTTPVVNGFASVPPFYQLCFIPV
human CYP2D6, sequence (P10635 whole entry): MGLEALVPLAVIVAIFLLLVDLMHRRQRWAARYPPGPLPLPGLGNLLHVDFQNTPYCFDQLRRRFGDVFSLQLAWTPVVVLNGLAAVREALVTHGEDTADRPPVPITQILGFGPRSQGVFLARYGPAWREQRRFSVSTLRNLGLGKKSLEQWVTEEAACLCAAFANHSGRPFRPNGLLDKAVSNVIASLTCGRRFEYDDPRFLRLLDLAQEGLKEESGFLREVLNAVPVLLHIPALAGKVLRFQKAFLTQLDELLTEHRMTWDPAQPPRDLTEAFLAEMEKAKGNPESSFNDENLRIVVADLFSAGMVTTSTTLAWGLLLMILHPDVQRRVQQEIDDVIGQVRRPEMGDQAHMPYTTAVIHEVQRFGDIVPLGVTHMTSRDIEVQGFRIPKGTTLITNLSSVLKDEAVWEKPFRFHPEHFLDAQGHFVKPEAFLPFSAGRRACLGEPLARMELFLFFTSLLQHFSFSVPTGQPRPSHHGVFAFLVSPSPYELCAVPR
Photinus pyralis (firefly) luciferase, sequence (P08659 whole entry): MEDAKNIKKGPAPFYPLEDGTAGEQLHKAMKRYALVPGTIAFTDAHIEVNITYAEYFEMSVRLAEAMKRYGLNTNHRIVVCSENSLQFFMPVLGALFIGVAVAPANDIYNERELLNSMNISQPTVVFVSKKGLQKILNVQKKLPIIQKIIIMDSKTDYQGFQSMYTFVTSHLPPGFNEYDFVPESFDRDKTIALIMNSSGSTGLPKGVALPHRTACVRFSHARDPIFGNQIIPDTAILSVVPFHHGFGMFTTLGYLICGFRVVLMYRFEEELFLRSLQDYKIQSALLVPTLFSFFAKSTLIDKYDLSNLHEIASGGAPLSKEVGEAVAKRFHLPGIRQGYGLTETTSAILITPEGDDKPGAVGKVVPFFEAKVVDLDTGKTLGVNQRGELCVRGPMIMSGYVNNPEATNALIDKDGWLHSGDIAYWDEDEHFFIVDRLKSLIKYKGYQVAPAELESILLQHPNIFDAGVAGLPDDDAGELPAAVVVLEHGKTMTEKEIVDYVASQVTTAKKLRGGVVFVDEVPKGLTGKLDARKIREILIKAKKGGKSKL
human CYP2C19, sequence (P33261 whole entry): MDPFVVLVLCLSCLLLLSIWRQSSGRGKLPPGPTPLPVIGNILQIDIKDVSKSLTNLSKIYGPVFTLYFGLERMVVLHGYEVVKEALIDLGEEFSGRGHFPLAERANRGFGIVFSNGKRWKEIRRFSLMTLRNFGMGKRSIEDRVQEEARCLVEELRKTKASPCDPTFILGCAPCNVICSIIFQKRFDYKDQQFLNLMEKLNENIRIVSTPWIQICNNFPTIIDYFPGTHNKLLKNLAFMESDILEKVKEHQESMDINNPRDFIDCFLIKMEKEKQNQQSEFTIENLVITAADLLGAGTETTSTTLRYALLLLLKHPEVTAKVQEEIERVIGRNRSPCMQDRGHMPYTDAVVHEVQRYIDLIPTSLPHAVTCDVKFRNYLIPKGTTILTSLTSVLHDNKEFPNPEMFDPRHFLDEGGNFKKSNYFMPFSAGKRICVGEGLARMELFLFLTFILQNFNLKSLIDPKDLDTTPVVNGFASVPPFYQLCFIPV

| Structure (SMILES) | Luciferase IC50 (half-maximal inhibitory concentration) [1] | IC50 (human CYP1A2) | IC50 (human CYP2C9) | IC50 (human CYP2C19) | IC50 (human CYP2D6) | IC50 (CYP3A4) | CYP1A2 IC50 (half-maximal inhibitory concentration) (human CYP1A2) | also measured |
| --- | --- | --- | --- | --- | --- | --- | --- | --- |
| CC(=O)O.CC(C)c1ccc2c(c1)CC[C@H]1[C@](C)(CN)CCC[C@]21C [Dehydroabietylamine acetate] | Inactive | 38.6 µM | 42.2 µM | 15 µM | 1.51 µM | 0.41 µM | – | CYP1A2 Efficacy (in parenthesis) (human CYP1A2): 38.64 ± 5.32 (-53 ± 5) %; CYP2C9 Efficacy (in parenthesis) (human CYP2C9): 42.19 ± 26.12 (-70 ± 20) %; CYP2C19 Efficacy (in parenthesis) (human CYP2C19): 14.98 ± 6.91 (-121 ± 11) %; CYP2D6 Efficacy (in parenthesis) (human CYP2D6): 1.51 ± 0.43 (-90 ± 10) %; CYP3A4 Efficacy (in parenthesis) (CYP3A4): 0.41 ± 0.13 (-82 ± 3) % |
| C[C@@H]1C[C@H]2[C@@H]3CCC4=CC(=O)C=C[C@]4(C)[C@@]3(F)[C@@H](O)C[C@]2(C)[C@@]1(O)C(=O)COC(=O)c1ccncc1 [Dexamethasone isonicotinate] | Inactive | – | 7.32 µM | 23.4 µM | 9.5 µM | 0.81 µM | Inactive | – |
| COS(=O)(=O)[O-].Cn1c(-c2ccccc2)cc(-c2ccccc2)[n+]1C [Difenzoquat metilsulfate] | – | – | – | – | 0.44 µM | – | – | Luciferase IC50 [1]: Inactive; CYP1A2 IC50 (human CYP1A2): Inactive; CYP2C9 IC50 (human CYP2C9): Inactive; CYP2C19 IC50 (human CYP2C19): Inactive; CYP3A4 IC50 (CYP3A4): Inactive |
| C=CC(=O)OCC(CO)(COCC(COC(=O)C=C)(COC(=O)C=C)COC(=O)C=C)COC(=O)C=C [Dipentaerythritol pentaacrylate] | Inactive | – | 7.3 µM | 8.87 µM | 26.7 µM | 0.43 µM | Inactive | CYP2C9 Efficacy (in parenthesis) (human CYP2C9): 7.3 ± 0.49 (-101 ± 2) %; CYP2C19 Efficacy (in parenthesis) (human CYP2C19): 8.87 ± 1.02 (-135 ± 9) %; CYP2D6 Efficacy (in parenthesis) (human CYP2D6): 26.69 ± 11.98 (-72 ± 6) %; CYP3A4 Efficacy (in parenthesis) (CYP3A4): 0.43 ± 0.03 (-94 ± 4) % |
| CCc1ccc(C(=O)C(C)CN2CCCCC2)cc1.Cl (stereo not shown) [Eperisone hydrochloride] | Inactive | 29.2 µM | – | 4.72 µM | 0.51 µM | – | – | CYP2C9 IC50 (half-maximal inhibitory concentration) (human CYP2C9): Inactive; CYP3A4 IC50 (half-maximal inhibitory concentration) (CYP3A4): Inactive |
| CCOC(CN1CCN(CC(C)C(=O)c2ccccc2)CC1)c1ccccc1.Cl.Cl (stereo not shown) [Eprazinone dihydrochloride] | Inactive | – | 11.5 µM | – | 0.2 µM | – | Inactive | AC50 (human CYP2C9): 11.5 µM; CYP2C19 IC50 (half-maximal inhibitory concentration) (human CYP2C19): Inactive; AC50 (human CYP2D6): 0.2 µM; AC50 (CYP3A4): 15.2 µM; CYP3A4 IC50 (half-maximal inhibitory concentration) (CYP3A4): 15.16 ± 1.74 (64 ± 2) µM |
| CCc1cc(Cl)c(OC)c(C(=O)NC[C@@H]2CCCN2CC)c1O.Cl [Eticlopride hydrochloride] | Inactive | 13.5 µM | – | – | – | – | – | CYP2C9 IC50 (half-maximal inhibitory concentration) (human CYP2C9): Inactive; CYP2C19 IC50 (half-maximal inhibitory concentration) (human CYP2C19): Inactive; CYP2D6 Efficacy (human CYP2D6): 0.67 ± 0.09 (-96 ± 1) %; CYP3A4 IC50 (half-maximal inhibitory concentration) (CYP3A4): Inactive |
| Cc1[nH]cnc1C[C@H]1CCc2c(C)c3ccccc3n2C1=O.Cl [Fabesetron hydrochloride] | Inactive | 1.56 µM | – | 1.67 µM | – | 1.89 µM | – | CYP2C9 Efficacy (human CYP2C9): 0.51 ± 0.09 (-90 ± 4) %; CYP2D6 Efficacy (human CYP2D6): 3.52 ± 0.74 (-103 ± 4) % |
| O=S(=O)(Oc1ccc(Cl)cc1)c1ccccc1 [Fenson] | – | 5.64 µM | 34.3 µM | 0.78 µM | 35.7 µM | – | – | Luciferase Efficacy (in parenthesis) [1]: 76.75 ± 5.00 (-30 ± 10) %; IC50 [1, 2]: 76.8 µM; CYP1A2 Efficacy (human CYP1A2): 5.64 ± 0.00 (-100 ± 5) %; CYP1A2 Efficacy (in parenthesis) (human CYP1A2): 5.64 ± 0 (-100 ± 5) %; AC50 (human CYP2C9): 34.3 µM; CYP2C9 Efficacy (human CYP2C9): 34.28 ± 2.23 (-89 ± 7) %; CYP2C19 Efficacy (human CYP2C19): 0.78 ± 0.29 (-135 ± 6) %; CYP2C19 Efficacy (in parenthesis) (human CYP2C19): 0.78 ± 0.29 (-135 ± 6) %; AC50 (human CYP2D6): 35.7 µM; CYP2D6 Efficacy (human CYP2D6): 35.73 ± 4.11 (-62 ± 14) %; AC50 (CYP3A4): 6.61 µM; CYP3A4 Efficacy (in parenthesis) (CYP3A4): 6.61 ± 0.84 (131 ± 4) %; CYP3A4 IC50 (half-maximal inhibitory concentration) (CYP3A4): 6.61 ± 0.84 (131 ± 4) µM |
| CCOC(=O)c1ccc(OC(=O)CCCCCN=C(N)N)cc1.CS(=O)(=O)O [Gabexate mesilate] | Inactive | 20.1 µM | – | 10.3 µM | – | – | – | CYP1A2 Efficacy (human CYP1A2): 20.14 ± 4.79 (-49 ± 20) %; AC50 (human CYP2C9): 10.3 µM; CYP2C9 Efficacy (human CYP2C9): 10.33 ± 4.77 (82 ± 30) %; CYP2C19 Efficacy (human CYP2C19): 10.33 ± 4.77 (-82 ± 30) %; AC50 (human CYP2D6): 0.27 µM; CYP2D6 Efficacy (human CYP2D6): 0.27 ± 0.04 (-102 ± 4) %; AC50 (CYP3A4): 21.2 µM; CYP3A4 IC50 (half-maximal inhibitory concentration) (CYP3A4): 21.25 ± 8.41 (37 ± 5) µM |
| CC[C@H]1C[C@@H]2C[C@H]3c4[nH]c5ccc(OC)cc5c4CCN(C2)[C@@H]13.Cl [Ibogaine hydrochloride] | Inactive | 61.5 µM | – | 83.1 µM | – | 32.5 µM | – | CYP2C9 Efficacy (human CYP2C9): 44.07 ± 15.72 (-45 ± 10) %; CYP2D6 Efficacy (human CYP2D6): 0.76 ± 0.1 (-105 ± 7) % |
| CC(C)C[C@H]1[C@@H](c2ccccc2)OC(=O)N1CCCN1CCCCCC1.Cl [Ipenoxazone hydrochloride] | – | – | – | 2.3 µM | – | 0.88 µM | – | Luciferase IC50 [1]: Inactive; CYP1A2 IC50 (human CYP1A2): Inactive; CYP2C9 IC50 (human CYP2C9): Inactive; CYP2D6 Efficacy (human CYP2D6): 0.44 ± 0.1 (-105 ± 4) % |
| Cc1oc(=O)oc1COC(=O)[C@@H]1N2C(=O)[C@@H](NC(=O)[C@H](N)c3ccccc3)[C@H]2SC1(C)C.Cl [Lenampicillin hydrochloride] | Inactive | – | 41.3 µM | – | – | 0.62 µM | Inactive | CYP2C19 IC50 (half-maximal inhibitory concentration) (human CYP2C19): Inactive; CYP2D6 IC50 (half-maximal inhibitory concentration) (human CYP2D6): Inactive |
| O=S(=O)([O-])C(F)(F)C(F)(F)C(F)(F)C(F)(F)C(F)(F)C(F)(F)C(F)(F)C(F)(F)F.[Li+] [Lithium perfluorooctane sulfonate] | Inactive | – | 0.48 µM | 86.1 µM | – | – | Inactive | CYP2D6 IC50 (half-maximal inhibitory concentration) (human CYP2D6): Inactive; CYP3A4 IC50 (half-maximal inhibitory concentration) (CYP3A4): Inactive |
| CN1[C@@H]2CCC(C)(C)[C@H]1C[C@H](OC(=O)C(O)(c1cccs1)c1cccs1)C2 [Mazaticol] | Inactive | – | – | – | 14.4 µM | 0.22 µM | Inactive | CYP2C9 IC50 (half-maximal inhibitory concentration) (human CYP2C9): Inactive; CYP2C19 IC50 (half-maximal inhibitory concentration) (human CYP2C19): Inactive |
| CCOC(=O)c1c(C)n(C)c2ccc(O)cc12 [Mecarbinate] | Inactive | 0.54 µM | 12.9 µM | 7.23 µM | 17.9 µM | 5.97 µM | – | – |
| [Cl][Hg][Cl] [Mercuric chloride] | – | 5.66 µM | 0.47 µM | 0.77 µM | 1.61 µM | 2.25 µM | – | IC50 ([1]; read-out: Luciferase IC50): 11 µM |
| CC(=O)[O-].CC(=O)[O-].[Hg+2] [Mercury(II) acetate] | – | 4.19 µM | 0.5 µM | 0.91 µM | 1.08 µM | 2.86 µM | – | Luciferase Efficacy (in parenthesis) [1]: 6.84 ± 0.45 (-85 ± 7) %; IC50 [1, 2]: 6.84 µM; CYP1A2 Efficacy (in parenthesis) (human CYP1A2): 4.19 ± 0.75 (-100 ± 9) %; CYP2C9 Efficacy (in parenthesis) (human CYP2C9): 0.5 ± 0.06 (-104 ± 2) %; CYP2C19 Efficacy (in parenthesis) (human CYP2C19): 0.91 ± 0.47 (-137 ± 5) %; CYP2D6 Efficacy (in parenthesis) (human CYP2D6): 1.08 ± 0.07 (-72 ± 4) %; CYP3A4 Efficacy (in parenthesis) (CYP3A4): 2.86 ± 0.53 (-93 ± 1) % |
| [I][Hg][I] [Mercury(II) iodide] | – | 3.7 µM | 0.54 µM | 1.04 µM | 1.67 µM | 2.53 µM | – | IC50 ([1]; read-out: Luciferase IC50): 5.25 µM |
| COc1cc(Cl)ccc1Oc1ccc(Cl)cc1Cl [Methyl triclosan] | – | 15.1 µM | 12 µM | 0.72 µM | – | 70.2 µM | – | IC50 ([1]; read-out: Luciferase IC50): 48.9 µM; CYP2D6 IC50 (human CYP2D6): Inactive |
| COC(=O)c1cncn1C(C)c1ccccc1.Cl (stereo not shown) [Metomidate hydrochloride] | Inactive | – | 34 µM | 4.05 µM | 5.65 µM | 0.25 µM | Inactive | – |
| CCCN(CCC)CCc1c[nH]c2ccccc12.Cl [N,N-Dipropyltryptamine hydrochloride] | – | 20.8 µM | – | 65.9 µM | 0.31 µM | – | – | Luciferase IC50 [1]: Inactive; CYP2C9 IC50 (human CYP2C9): Inactive; CYP3A4 IC50 (CYP3A4): Inactive |
